According to PubChem BioAssay AID2060511 (Molecular Pharmacology Branch, DTP, NCI, 2025):

Tested on: 422866-222-R5-J1-PDC spheroids with HUVEC/MSC, viability
Test: Anticancer human tumor 422866-222-R5-J1-PDC patient-derived pancreatic adenocarcinoma cell line growth inhibition [GQUAD]
Details: for IC50: curve of first compound; for viability, T/C: stronger effect = lower value
How it was run: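 Multi-cell-type spheroids of tumor cells with HUVEC and mesenchymal stem cells, treated with drug combinations. Concentrations descend in half-log steps from near clinical Cmax, or from 10 microM where Cmax is unknown; viability read-out.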

[1] = second compound 0.0316 µM, first compound 0.0316 µM
[2] = second compound 0.0316 µM, first compound 0.1 µM
[3] = second compound 0.0316 µM, first compound 0.316 µM
[4] = second compound 0.0316 µM, first compound 1 µM
[5] = second compound 0.0316 µM, first compound 3.16 µM
[6] = second compound 0.0316 µM, first compound 10 µM
[7] = second compound 0.1 µM, first compound 0.0316 µM
[8] = second compound 0.1 µM, first compound 0.1 µM
[9] = second compound 0.1 µM, first compound 0.316 µM
[10] = second compound 0.1 µM, first compound 1 µM
[11] = second compound 0.1 µM, first compound 3.16 µM
[12] = second compound 0.1 µM, first compound 10 µM
[13] = second compound 0.316 µM, first compound 0.0316 µM
[14] = second compound 0.316 µM, first compound 0.1 µM
[15] = second compound 0.316 µM, first compound 0.316 µM
[16] = second compound 0.316 µM, first compound 1 µM
[17] = second compound 0.316 µM, first compound 3.16 µM
[18] = second compound 0.316 µM, first compound 10 µM
[19] = second compound 1 µM, first compound 0.0316 µM
[20] = second compound 1 µM, first compound 0.1 µM
[21] = second compound 1 µM, first compound 0.316 µM
[22] = second compound 1 µM, first compound 1 µM
[23] = second compound 1 µM, first compound 3.16 µM
[24] = second compound 1 µM, first compound 10 µM
[25] = second compound 3.16 µM, first compound 0.0316 µM
[26] = second compound 3.16 µM, first compound 0.1 µM
[27] = second compound 3.16 µM, first compound 0.316 µM
[28] = second compound 3.16 µM, first compound 1 µM
[29] = second compound 3.16 µM, first compound 3.16 µM
[30] = second compound 3.16 µM, first compound 10 µM
[31] = second compound 10 µM, first compound 0.0316 µM
[32] = second compound 10 µM, first compound 0.1 µM
[33] = second compound 10 µM, first compound 0.316 µM
[34] = second compound 10 µM, first compound 1 µM
[35] = second compound 10 µM, first compound 3.16 µM
[36] = second compound 10 µM, first compound 10 µM
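Also: spheroids exposed to compounds for seven days before reading.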
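For viability, T/C in this document: percent viability relative to DMSO vehicle control taken as 100%.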

C=CC(=O)N1CCN(c2nc(=O)n(-c3c(C)ccnc3C(C)C)c3nc(-c4c(O)cccc4F)c(F)cc23)C(C)C1 (stereo unspecified) + CN(C)c1ccc(Nc2c3ccc(NC(=O)CCN4CCCC4)cc3nc3cc(NC(=O)CCN4CCCC4)ccc23)cc1
IC50 (second compound 0.0316 µM): < 31.6 nM | IC50 (second compound 0.1 µM): < 31.6 nM | IC50 (second compound 0.316 µM): < 31.6 nM | IC50 (second compound 1 µM): < 31.6 nM | IC50 (second compound 3.16 µM): < 31.6 nM | IC50 (second compound 10 µM): < 31.6 nM | viability, T/C [1]: 39.3% | viability, T/C [2]: 32.5% | viability, T/C [3]: 29.6% | viability, T/C [4]: 25.2% | viability, T/C [5]: 26.4% | viability, T/C [6]: 30% | viability, T/C [7]: 37.9% | viability, T/C [8]: 29.4% | viability, T/C [9]: 26.6% | viability, T/C [10]: 22.7% | viability, T/C [11]: 27.3% | viability, T/C [12]: 26.4% | viability, T/C [13]: 41.9% | viability, T/C [14]: 25.2% | viability, T/C [15]: 29.9% | viability, T/C [16]: 25.7% | viability, T/C [17]: 30.7% | viability, T/C [18]: 28.7% | viability, T/C [19]: 27.8% | viability, T/C [20]: 27.9% | viability, T/C [21]: 25.1% | viability, T/C [22]: 23.9% | viability, T/C [23]: 24.7% | viability, T/C [24]: 28% | viability, T/C [25]: 31.2% | viability, T/C [26]: 25.5% | viability, T/C [27]: 24.3% | viability, T/C [28]: 25.3% | viability, T/C [29]: 25% | viability, T/C [30]: 28.3% | viability, T/C [31]: 29.5% | viability, T/C [32]: 27.3% | viability, T/C [33]: 25.7% | viability, T/C [34]: 29% | viability, T/C [35]: 28.8% | viability, T/C [36]: 29.1%

CCCS(=O)(=O)Nc1ccc(F)c(C(=O)c2c[nH]c3ncc(-c4ccc(Cl)cc4)cc23)c1F + Cc1cnc(CNC(=O)c2c(=O)c3ccc(N4CCCN(C)CC4)nc3n3c2sc2ccccc23)cn1
IC50 (second compound 0.0316 µM): > 10000 nM | IC50 (second compound 0.1 µM): > 10000 nM | IC50 (second compound 0.316 µM): > 10000 nM | IC50 (second compound 1 µM): > 10000 nM | IC50 (second compound 3.16 µM): > 10000 nM | IC50 (second compound 10 µM): > 10000 nM | viability, T/C [1]: 96.8% | viability, T/C [2]: 89.2% | viability, T/C [3]: 117% | viability, T/C [4]: 109% | viability, T/C [5]: 145% | viability, T/C [6]: 54.9% | viability, T/C [7]: 93.9% | viability, T/C [8]: 87.3% | viability, T/C [9]: 115% | viability, T/C [10]: 92% | viability, T/C [11]: 109% | viability, T/C [12]: 84.7% | viability, T/C [13]: 78.6% | viability, T/C [14]: 90.4% | viability, T/C [15]: 90% | viability, T/C [16]: 115% | viability, T/C [17]: 102% | viability, T/C [18]: 86.6% | viability, T/C [19]: 73.2% | viability, T/C [20]: 80.7% | viability, T/C [21]: 87.2% | viability, T/C [22]: 110% | viability, T/C [23]: 111% | viability, T/C [24]: 86% | viability, T/C [25]: 72.9% | viability, T/C [26]: 80.9% | viability, T/C [27]: 85.5% | viability, T/C [28]: 93.7% | viability, T/C [29]: 95.1% | viability, T/C [30]: 88.7% | viability, T/C [31]: 69.2% | viability, T/C [32]: 76.2% | viability, T/C [33]: 109% | viability, T/C [34]: 86.8% | viability, T/C [35]: 96% | viability, T/C [36]: 94.2%

C#Cc1c(F)ccc2cc(O)cc(-c3ncc4c(N5CC6CCC(C5)N6)nc(OCC56CCCN5CC(F)C6)nc4c3F)c12 (stereo unspecified) + CN(C)c1ccc(Nc2c3ccc(NC(=O)CCN4CCCC4)cc3nc3cc(NC(=O)CCN4CCCC4)ccc23)cc1
IC50 (second compound 0.0316 µM): 1130 nM | IC50 (second compound 0.1 µM): 1250 nM | IC50 (second compound 0.316 µM): 1190 nM | IC50 (second compound 1 µM): 1110 nM | IC50 (second compound 3.16 µM): 919 nM | IC50 (second compound 10 µM): 1590 nM | viability, T/C [1]: 97.9% | viability, T/C [2]: 91.8% | viability, T/C [3]: 87.2% | viability, T/C [4]: 50.8% | viability, T/C [5]: 36.8% | viability, T/C [6]: 29.4% | viability, T/C [7]: 102% | viability, T/C [8]: 83.4% | viability, T/C [9]: 89.6% | viability, T/C [10]: 51.1% | viability, T/C [11]: 39.9% | viability, T/C [12]: 27.3% | viability, T/C [13]: 93.2% | viability, T/C [14]: 85.9% | viability, T/C [15]: 64.5% | viability, T/C [16]: 53.5% | viability, T/C [17]: 39.3% | viability, T/C [18]: 30.2% | viability, T/C [19]: 96.4% | viability, T/C [20]: 83.6% | viability, T/C [21]: 65.7% | viability, T/C [22]: 50.1% | viability, T/C [23]: 42.1% | viability, T/C [24]: 33.6% | viability, T/C [25]: 80.5% | viability, T/C [26]: 96.1% | viability, T/C [27]: 68.6% | viability, T/C [28]: 49.5% | viability, T/C [29]: 40.3% | viability, T/C [30]: 32.2% | viability, T/C [31]: 84.6% | viability, T/C [32]: 85.1% | viability, T/C [33]: 78.5% | viability, T/C [34]: 50.8% | viability, T/C [35]: 45.5% | viability, T/C [36]: 27.2%
